Test results from ChEMBL document CHEMBL5352435, “Recent two-year advances in anti-dengue small-molecule inhibitors” (Eur J Med Chem, 2022).
*1 amine or outer side, *2 acyl side, *3 side chain or, on linkers, in order; H or OH if unused. Where a SMILES comes first, the peptide text is derived from it. Bridges are numbered along the chain shown (N, C = ends). [ ]: non-standard residue; d: D form. The star is where a group is joined. hTyr(3S-OH,4S-OH,3'-OSO3H) = N[C@H](C(=O)O)[C@H](O)[C@@H](O)c1ccc(O)c(OS(=O)(=O)O)c1; Orn(4R-OH,5R-OH) = O=C([C@H](C[C@@H](O)[C@@H](O)N[*:3])N[*:1])[*:2]; Pro(3S-OH,4S-Me) = C[C@H]1CN[C@H](C(=O)O)[C@H]1O; X1 = CCCCCOc1ccc(-c2cc(-c3ccc(C(=O)*)cc3)no2)cc1; Gln(3R-OH) = NC(=O)C[C@@H](O)[C@H](N)C(=O)O; Hyp = O=C(O)[C@@H]1C[C@@H](O)CN1

How the values were obtained:
dengue virus type 2 [1] = assay: Antiviral activity against DENV2 New Guinea C infected in golden hamster BHK-21 cells assessed as inhibition of plaque formation and measured after 22 hrs by crystal violet based plaque assay; type: functional, organism-based; conditions: BHK-21, 22 h
Genome polyprotein [2] = target: T1, Genome polyprotein (dengue virus type 2, UniProt P29990); assay: Inhibition of DENV2 NS2B/NS3 protease using Boc-Gly-Arg-Arg-MCA as substrate preincubated for 10 mins followed by substrate addition and measured after 60 mins by fluorescence microplate reader assay
dengue virus type 2 [3] = assay: Antiviral activity against DENV2 infected in African green monkey Vero cells assessed as inhibition of viral titer preincubated for 16 hrs followed by viral infection and measured after 36 hrs by focus-forming assay; type: functional, organism-based
[4] = Cytotoxicity against human Huh-7 cells assessed as reduction in cell viability incubated for 48 hrs by AlamarBlue assay; type: toxicity, cell-based
dengue virus type 2 [5] = assay: Antiviral activity against DENV2 New Guinea C expressing […] reporter plasmid infected in human Huh-7 cells assessed as inhibition of viral replication incubated for 48 hrs by nanoluciferase assay; type: functional, organism-based; conditions: Huh-7, 48 h
dengue virus type 4 [6] = assay: Antiviral activity against DENV4 infected in Huh-7 cells assessed as inhibition of virus induced cytopathic effect incubated for 72 hrs by Hoechst 33342 staining based immunofluorescence assay; type: functional, organism-based; conditions: Huh-7, 72 h
Nonstructural protein 3 = Nonstructural protein 3 (Zika virus, UniProt A0A024AXB9); assay: Inhibition of recombinant ZIKV NS2B-NS3 protease using Bz-Nle-K-K-R-AMC as substrate incubated for 1 hr by fluorescence-based microplate reader assay
dengue virus type 2 [7] = assay: Antiviral activity against DENV2 assessed as inhibition of viral replication; type: functional, organism-based
dengue virus type 2 [8] = assay: Antiviral activity against DENV2 New Guinea C infected in monkey LLC-MK2 cells assessed as inhibition of plaque formation incubated for 72 hrs by plaque titration assay; type: functional, organism-based; conditions: LLC-MK2, 72 h
dengue virus type 3 [9] = assay: Antiviral activity against DENV3 assessed as inhibition of viral replication; type: functional, organism-based
dengue virus type 1 = assay: Antiviral activity against DENV1 assessed as inhibition of viral replication; type: functional, organism-based
dengue virus type 4 [10] = assay: Antiviral activity against DENV4 assessed as inhibition of viral replication; type: functional, organism-based
dengue virus type 2 [11] = assay: Antiviral activity against DENV2 infected in mouse assessed as survival rate at 30 mg/kg,po; type: functional
dengue virus type 2 [12] = assay: Antiviral activity against DENV2 New Guinea C infected in Huh-7 cells assessed as inhibition of virus induced cytopathic effect incubated for 3 to 7 days by Neutral red assay; type: functional, organism-based
dengue virus type 3 [13] = assay: Antiviral activity against DENV3 H87 assessed as reduction in viral RNA copy number preincubated for 1 hrs followed by infection in Vero cells and measured after 4 days by qRT-PCR analysis; type: functional, organism-based
dengue virus type 2 [14] = assay: Antiviral activity against DENV2 New Guinea C infected in golden hamster BHK-21 cells assessed as inhibition of plaque formation incubated for 4 days by crystal violet staining based microscopy; type: functional, organism-based; conditions: BHK-21, 96 h
dengue virus type 2 [15] = assay: Antiviral activity against DENV2 16681 infected in human Huh-7 cells assessed as inhibition of viral titer incubated for 24 hrs by focus-forming assay; type: functional, organism-based; conditions: Dengue virus, 16681, Huh-7, 24 h
[16] = Cytotoxicity against human Huh-7 cells assessed as reduction in cell viability incubated for 24 hrs by PrestoBlue assay; type: toxicity, cell-based
dengue virus type 2 [17] = assay: Antiviral activity against DENV2 Thailand/16681/1984 infected in golden hamster BHK-21 cells assessed as inhibition of virus induced cytopathic effect incubated for 4 to 5 days by microscopy; type: functional, organism-based
Genome polyprotein [18] = target: T1, Genome polyprotein; assay: Inhibition of DENV2 NS2B (48 to 100 residues)/NS3 (14 to 185 residues) protease expressed in Escherichia coli BL21 (DE3) using Bz-Nle-Lys-Arg-Arg-AMC as substrate preincubated for 30 mins followed by substrate addition by fluorescence assay

T1 sequence (P29990 1346-1475 limits assumed): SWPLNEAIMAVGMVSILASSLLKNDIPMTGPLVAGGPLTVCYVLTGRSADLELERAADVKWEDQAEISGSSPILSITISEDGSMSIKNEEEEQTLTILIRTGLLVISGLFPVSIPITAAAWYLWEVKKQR
T1 sequence (P29990 1476-2093 limits assumed): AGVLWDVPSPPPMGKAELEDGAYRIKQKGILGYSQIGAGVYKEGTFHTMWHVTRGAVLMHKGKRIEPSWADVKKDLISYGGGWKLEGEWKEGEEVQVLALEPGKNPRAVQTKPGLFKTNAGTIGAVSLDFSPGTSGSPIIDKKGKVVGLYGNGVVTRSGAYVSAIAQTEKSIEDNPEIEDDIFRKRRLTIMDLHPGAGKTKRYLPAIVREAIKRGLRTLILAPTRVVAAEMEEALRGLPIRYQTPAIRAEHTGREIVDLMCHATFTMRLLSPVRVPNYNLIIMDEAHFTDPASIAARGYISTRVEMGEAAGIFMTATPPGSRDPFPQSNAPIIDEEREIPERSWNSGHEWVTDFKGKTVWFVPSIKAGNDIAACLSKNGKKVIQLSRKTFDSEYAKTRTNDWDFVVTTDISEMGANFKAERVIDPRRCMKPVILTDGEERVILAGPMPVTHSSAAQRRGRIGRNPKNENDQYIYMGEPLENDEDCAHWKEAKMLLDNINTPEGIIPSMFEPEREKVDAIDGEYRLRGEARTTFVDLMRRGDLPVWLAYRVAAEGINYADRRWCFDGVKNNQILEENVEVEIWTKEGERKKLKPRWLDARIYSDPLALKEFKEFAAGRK
Nonstructural protein 3, sequence (A0A024AXB9 whole entry): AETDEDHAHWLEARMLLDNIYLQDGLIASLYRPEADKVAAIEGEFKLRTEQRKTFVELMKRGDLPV

Work on COc1cc(/C=C(\C#N)C(=O)c2ccc(O)c(O)c2)cc(I)c1O yielded an EC50 (dengue virus type 2 [1]) of 3 µM.
Work on O=C(CCCCCCCCc1ccc(O)cc1)c1c(O)cc(O)cc1O yielded an IC50 (Genome polyprotein [2]) of 7.55 µM.
In the case of Cc1ccc(O)c(NC(=O)CCc2ccccc2)c1, the IC50 (dengue virus type 2 [3]) is reported as 1 µM.
Molecule Fc1cc2cn[nH]c2cc1Nc1ccnc2ccc(Br)cc12 has a CC50 at 48 h [4] of over 10 µM and an EC50 (dengue virus type 2 [5]) of 2.3 µM.
With O=[N+]([O-])c1ccc(Nc2ccc3[nH]ncc3c2)nc1N1CCNCC1 the IC50 (dengue virus type 4 [6]) was 7.1 µM and the IC50 (Nonstructural protein 3) was 1.5 µM.
For CC(C)(C)[Si](C)(C)Oc1ccc([C@H]2N(Nc3ccc([N+](=O)[O-])cc3)C(=O)[C@@H]3Cc4ccccc4N32)cc1, the EC50 (dengue virus type 2 [7]) was 4.79 µM.
C#COc1ccc(-c2cc(=O)c3c(O)cc(O)cc3o2)cc1 gave an EC50 (dengue virus type 2 [8]) of 7.81 µM.
For COc1cc(NC(C(=O)N2CCc3ccc(OC(F)(F)F)cc32)c2ccc(Cl)cc2)cc(OCCCC(=O)O)c1 (stereo not given), the EC50 (dengue virus type 3 [9]) was at most 0.001 µM, the EC50 (dengue virus type 1) was at most 0.001 µM and the EC50 (dengue virus type 4 [10]) was at most 0.006 µM. For the same molecule, the EC50 (dengue virus type 2 [7]) was at most 0.004 µM and the Activity (dengue virus type 2 [11]) was 90%.
Work on CC1(C)Cc2sc(NC(=O)Cc3ccc(S(N)(=O)=O)cc3)c(C#N)c2CN1CC1CCCCC1 yielded an EC50 (dengue virus type 2 [12]) of 0.023 µM.
Molecule O=C1NCc2ccc(Nc3ccnc4ccc(Br)cc34)cc21 has a CC50 at 48 h [4] of over 10 µM and an EC50 (dengue virus type 2 [5]) of 3.6 µM.
With O=c1cc(-c2ccccc2)oc2cc(O)c(O)c(O)c12 [BAICALEIN] the IC50 (dengue virus type 3 [13]) was 17.2 µM.
Work on Cc1cc2c(F)c(Oc3ncnn4cc(OC[C@@H](C)O)c(C)c34)ccc2[nH]1 [BRIVANIB] yielded an IC50 (dengue virus type 2 [14]) of 2.5 µM.
Molecule COc1ccc2[nH]cc(CCNC(C)=O)c2c1 [MELATONIN] has an IC50 (dengue virus type 2 [15]) of 135 µM and a CC50 at 24 h [16] of 3170 µM.
With CCCCCOc1ccc(-c2cc(-c3ccc(C(=O)N[C@H]4C[C@@H](O)[C@@H](O)NC(=O)[C@@H]5[C@@H](O)[C@@H](C)CN5C(=O)[C@H]([C@H](O)CC(N)=O)NC(=O)[C@H]([C@H](O)[C@@H](O)c5ccc(O)c(OS(=O)(=O)O)c5)NC(=O)[C@@H]5C[C@@H](O)CN5C(=O)[C@H]([C@@H](C)O)NC4=O)cc3)no2)cc1 [MICAFUNGIN] (X1-[Orn(4R-OH,5R-OH)]T[Hyp][hTyr(3S-OH,4S-OH,3'-OSO3H)][Gln(3R-OH)][Pro(3S-OH,4S-Me)]; lactam 1-C) the IC50 (dengue virus type 2 [17]) was 10.2 µM.
O=c1c(O)c(-c2cc(O)c(O)c(O)c2)oc2cc(O)cc(O)c12 [MYRICETIN] gave an IC50 (Genome polyprotein [18]) of 8.46 µM.
For COc1cc([C@H]2Oc3cc([C@H]4Oc5cc(O)cc(O)c5C(=O)[C@@H]4O)ccc3O[C@@H]2CO)ccc1O [SILYBIN A], the IC50 (dengue virus type 3 [13]) was 18.5 µM.
Molecule Cc1ccc(C(=O)Nc2ccc(S(=O)(=O)O)c3cc(S(=O)(=O)O)cc(S(=O)(=O)O)c23)cc1NC(=O)c1cccc(NC(=O)Nc2cccc(C(=O)Nc3cc(C(=O)Nc4ccc(S(=O)(=O)O)c5cc(S(=O)(=O)O)cc(S(=O)(=O)O)c45)ccc3C)c2)c1 [SURAMIN HEXASODIUM] has an EC50 (dengue virus type 2 [1]) of 0.35 µM.
